Results: US11746103B2, “ALK-5 inhibitors and uses thereof” (Sumitomo Pharma Oncology, Inc., priority 2020, dated 2023)

How the values were obtained:
ALK-5 = ALK-5 (Homo sapiens (Human), UniProt P36897); assay: LanthaScreen Eu Kinase Binding Assay, ALK-5; conditions: for IC50: read-out: Kinase Inhibition: ALK5 IC50
Summary of the method: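 TR-FRET binding assay: compound displaces an ATP-site-directed Alexa Fluor tracer from kinase detected by Eu-labelled anti-tag antibody, lowering FRET. 10-point, 3-fold serial dilutions, 60 min incubation at room temperature, read without development step. Dose-response curves fitted.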

[1] = test system: phospho-SMAD2 (Ser 465/467) in A549 xenograft; assay: A549 xenograft study, tumor phospho SMAD2; format: in vivo, mouse; conditions: for phospho SMAD2 levels in tumor (normalized to GAPDH): 10, 50, 75, 100 mg/Kg; for inhibition at 10 mg/kg / inhibition at 50 mg/kg / inhibition at 75 mg/kg / inhibition at 100 mg/kg: Mus musculus, A549, oral gavage, 3 hours after administration, read-out: Percent of p-SMAD2 inhibition compared to vehicle control
Text: To test compounds for in vivo on-target activity (ALK5/TGF-βR1 inhibition), a study was completed using an A549 murine xenograft model. This model was utilized since an ALK5 inhibitor is expected to reduce the amount of the key TGF-β signaling molecule phosphoSMAD2 in the A549 xenograft cells. The TGF-β mediated phosphorylation in A549 cells takes place at amino acid residue four hundred and sixty-five and four hundred and sixty-seven (both are serine residues).
Eight-week old, female athymic nude mice (Charles River) were injected with approximately four million A549 cells (ATCC, CCL-185). The cells employed were harvested and resuspended in plain RPMI media (no phenol red added) and matrigel (Fisher Scientific) at a one to one ratio. Injection comprised a two-hundred microliter sample injected into the right hind flank of each mouse. Resulting tumors were measured every three days by caliper and as tumors reached an average of one hundred and thirty millimeters cubed, mice were randomized in groups of three.
All compounds were resuspended in 1-Methyl-2-pyrrolidinone (10%) plus 20% Solutol in water (90%). Galunisertib was included as a positive control and given at seventy-five milligram per kilogram to three mice. The drug suspensions were sonicated for fifteen minutes to generate a fine particle suspension before being administered to a subject. Mice were dosed (per oral gavage) at dose levels of one hundred mg/Kg, seventy-five mg/Kg, fifty mg/Kg and ten mg/Kg with three mice in each group. A vehicle control group with three mice was used to establish the baseline level of phospho SMAD2 in the tumor xenograft. Three hours after drug administration, tumors were harvested and stored at negative eighty degrees Celsius until further processing. The phospho SMAD2 levels were determined using the BioPlex Pro anti phospho-SMAD2 (Ser 465/467) beads from Biorad and this signal was normalized using GAPDH levels from each sample (Milliplex MAP GAPDH beads, Sigma/Millipore). Tumors were processed according to kit instructions and beads analyzed using the MagPix instrument by Luminex.

[2] = test system: p-SMAD2 (Ser465/Ser467) in A549 xenograft; assay: Longitudinal PK/PD analysis of p-SMAD2 in A549 xenograft mouse model (PD); format: in vivo; conditions: 75 mg/kg single oral dose; for inhibition at 75 mg/kg: Mus musculus, A549, 4 hours post drug administration, read-out: inhibition of p-SMAD2 compared to the vehicle group
Procedure: In this study, p-SMAD2 (Ser465/Ser467) and a housekeeping gene (GAPDH) were measured at six timepoints from zero (established using vehicle-treated animals) up to twenty-four hours post dose for a single drug dose of seventy-five milligrams per kilogram per subject (three subjects per dosing group).
For this study, xenografts were prepared and implanted in mice as follows. At five weeks of age, female athymic nude mice (purchased from Charles River) were injected with approximately 3.2 million A549 cells (ATCC, CCL-185). Cells were harvested and resuspended in plain RPMI media (no phenol red added) and Matrigel (Corning 356237) at a one-to-one ratio, and two hundred-microliters of the cell suspension were injected into the right hind flank of each mouse. Tumors were measured every three days by caliper, and as tumors reached an average of ninety millimeters cubed, mice were randomized in groups of three. Each of the test compounds (Ex-10 and Ex-11) was resuspended in 1-methyl-2-pyrrolidinone (Sigma, 494496) (10%) plus 20% Solutol (Sigma 42966) in water (90%). The drug suspensions were sonicated for fifteen minutes to generate a fine particle suspension before being given to the test subjects. Subjects were dosed (per oral gavage) with the suspension. A vehicle control group with three mice was used to establish the baseline and timepoint zero of phospho-SMAD-2 in the tumor xenograft. The test compounds were administered to the respective subject groups at seventy-five milligrams per kilogram. Samples were obtained post administration of test compounds at 20 minutes, one hour, two hours, four hours, and twenty-four hours. Tumors were harvested, snap frozen and stored at negative eighty degrees Celsius until further processing. Plasma was collected from all animals by collecting whole blood via cardiac puncture, followed by centrifugation in tubes containing EDTA (BD, microtainer tubes, 365974). A group of three mice receiving vehicle only served as the zero timepoint for both drug groups. The phospho-SMAD-2 levels were determined using the Bio-Plex Pro™ Phospho-Smad2 (Ser465/Ser467) Set (BioRad 171V50019M). The phospho-SMAD-2 levels were normalized to GAPDH (MILLIPLEX MAP GAPDH Total Magnetic Bead MAPmate™, Millipore 46-667MAG) levels from each sample. All analytes were analyzed in a multiplex fashion with the Bio-Plex Pro Cell Signaling Reagent Kit (BioRad 171304006M). Frozen tumor samples (fifteen to thirty milligrams) were lysed in 100 μl lysis buffer, processed in a bead mill tube, and centrifuged. The resulting lysate was used at 1:50 dilution for the assay according to the manufacturer's instructions. Bead suspension was analyzed using the Luminex system (MAGPIX).

[3] = test system: TGF-β1 mediated alpha-SMA expression in primary human bronchial fibroblasts derived from IPF patients; assay: Fibroblast to Myofibroblast Transformation (FMT) assay; conditions: for max PIN of TGF-β1 mediated alpha-SMA expression: in at least two donors
Procedure: To test the ability of compounds of the invention to inhibit the TGF-β1 dependent transition of fibroblasts to myofibroblasts in a relevant disease model of IPF, a study was carried out using an FMT assay employing lung fibroblasts from IPF patients. In this model the transition of fibroblasts to myofibroblasts is determined by the expression of the biomarker alpha smooth muscle actin (SMA).
Each drug concentration condition was evaluated in biological duplicates. One hour after compound addition, cells were stimulated with 1.25 ng/ml of TGF-01 and cultured for 72 hours thereafter. At the end of 72 hours cells were fixed using formaldehyde. The results were generated using high content imaging after staining cells using the nuclear stain DAPI as well as evaluation of the expression of alpha SMA. […] As a negative control 0.1% DMSO was used matching the DMSO concentration in treated wells.

Chain of ALK-5 (P36897 34-503): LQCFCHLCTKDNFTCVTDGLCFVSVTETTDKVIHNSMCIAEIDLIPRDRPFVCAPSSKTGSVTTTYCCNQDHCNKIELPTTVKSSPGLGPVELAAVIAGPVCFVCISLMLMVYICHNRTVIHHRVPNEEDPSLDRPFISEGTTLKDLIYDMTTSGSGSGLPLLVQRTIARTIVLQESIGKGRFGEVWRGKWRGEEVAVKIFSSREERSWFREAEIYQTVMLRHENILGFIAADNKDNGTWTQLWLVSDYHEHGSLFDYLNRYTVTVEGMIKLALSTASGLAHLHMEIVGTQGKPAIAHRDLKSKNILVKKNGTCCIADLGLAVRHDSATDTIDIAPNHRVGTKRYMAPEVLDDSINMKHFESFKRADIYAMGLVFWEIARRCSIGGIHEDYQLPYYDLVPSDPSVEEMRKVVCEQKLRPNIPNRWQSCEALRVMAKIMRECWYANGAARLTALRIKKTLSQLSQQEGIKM

SMILES: Cc1cccc2c(Nc3ccnc(Nc4ccc(N5CCOCC5)cc4)n3)cnnc12 [EX-10, N4-(8-methylcinnolin-4-yl)-N2-(4-morpholino-phenyl)-pyrimidine-2,4-diamine]
- Kinase Selectivity: ALK2 IC50/ ALK5 IC50 (ALK-5): (++) (10<ALK2/ALK5<100=[++])
- IC50 (ALK-5): < 10 nM
- phospho SMAD2 levels in tumor (normalized to GAPDH) [1]: reduced the phopho SMAD2 levels (p-SMAD2) in a dose dependent fashion
- inhibition at 10 mg/kg [1]: 33.5%
- inhibition at 50 mg/kg [1]: 78.3%
- inhibition at 75 mg/kg ([1]; 75 mg/Kg): 74.8%
- inhibition at 100 mg/kg [1]: 84.8%
- p-SMAD2 levels at 24 hours post drug administration [2]: rose back to baseline levels
- inhibition at 75 mg/kg [2]: 74.3%
- LogM IC50 αSMA ([3]; donor IPF05): −6.8 LogM
- Max PIN (%) ([3]; donor IPF05): 106.4%
- potentially toxic (>25% loss of nuclei) ([3]; donor IPF05): >−5.5
- LogM IC50 αSMA ([3]; donor IPF06): −6.7 LogM
- Max PIN (%) ([3]; donor IPF06): 110.3%
- LogM IC50 αSMA ([3]; donor IPF08): −7.0 LogM
- Max PIN (%) ([3]; donor IPF08): 100.3%
- potentially toxic (>25% loss of nuclei) ([3]; donor IPF08): >−5.5
- max PIN of TGF-β1 mediated alpha-SMA expression [3]: greater than 75

SMILES: Cc1cccc2c(Nc3ccnc(Nc4cccc(N5CCOCC5)c4)n3)cnnc12 [EX-11, N4-(8-methylcinnolin-4-yl)-N2-(3-morpholinophenyl)pyrimidine-2,4-diamine]
- Kinase Selectivity: ALK2 IC50/ ALK5 IC50 (ALK-5): (++) (10<ALK2/ALK5<100=[++])
- IC50 (ALK-5): < 10 nM
- observed level of p-SMAD2 as percent of vehicle-only group ([1]; 75 mg/Kg): 7.5%
- phospho SMAD2 levels in tumor (normalized to GAPDH) [1]: reduced the phopho SMAD2 levels (p-SMAD2) in a dose dependent fashion
- inhibition at 10 mg/kg [1]: 32.6%
- inhibition at 50 mg/kg [1]: 87.6%
- inhibition at 75 mg/kg ([1]; 75 mg/Kg): 92.5%
- inhibition at 100 mg/kg [1]: 90.1%
- p-SMAD2 levels at 24 hours post drug administration [2]: rose back to baseline levels
- inhibition at 75 mg/kg [2]: 92.3%
- LogM IC50 αSMA ([3]; donor IPF05): −7.2 LogM
- Max PIN (%) ([3]; donor IPF05): 107.2%
- potentially toxic (>25% loss of nuclei) ([3]; donor IPF05): >−6.0
- LogM IC50 αSMA ([3]; donor IPF06): −7.0 LogM
- Max PIN (%) ([3]; donor IPF06): 112.9%
- potentially toxic (>25% loss of nuclei) ([3]; donor IPF06): >−5.5
- LogM IC50 αSMA ([3]; donor IPF08): −7.3 LogM
- Max PIN (%) ([3]; donor IPF08): 103.7%
- potentially toxic (>25% loss of nuclei) ([3]; donor IPF08): >−6.0
- inhibition of TGF-β-mediated alpha-SMA expression ([3]; in all three donors): full concentration-dependent inhibition
- max PIN of TGF-β1 mediated alpha-SMA expression [3]: greater than 75
